Assay results from patent publication US10577373B2, “TYK2 inhibitors and uses thereof” (Nimbus Lakshmi, Inc., priority 2017, dated 2020).
Read-outs that look alike come from different tables or passages of the source.

Assays:
[1] = test system: IL-12 induced STAT4 phophorylation mediated by Tyk2/JAK2 (heterodimeric complex); experiment: IL-12 Induced pSTAT4 in Human PBMC; type: cell-based; conditions: 1.7 ng/mL IL-12
Description: The IL-12 Induced pSTAT4 assay evaluates the inhibition of IL-12 induced STAT4 phophorylation mediated by Tyk2/JAK2 (heterodimeric complex).

[2] = test system: GM-CSF induced STAT5 phosphorylation mediated by the JAK2/JAK2 homdimeric complex; experiment: GM-CSF Induced pSTAT5 in Human PBMC; conditions: GM-CSF 5 ng/mL for 20 minutes, pSTAT5
Description: Human PBMC are isolated from buffy coat and are stored frozen for assays as needed.

[3] = Homo sapiens, PBMC, 20 min, read-out: PBMC_GMCSF_pSTAT5 IC50, human PBMC
[4] = read-out: PBMC_GMCSF_pSTAT5 IC50, human PBMC

Structure (SMILES)	IC50 [1] [nM]	IC50 [2, 3] [nM]	IC50 [2, 4] [nM]
CNc1cc(Nc2cccn([C@H]3CC[C@@](C)(OC)CC3)c2=O)nc2c(C(=O)NC3CC3)cnn12 [I-359]	100 to 500	> 12500	–
CNc1cc(Nc2cccn(-c3cn(C)nc3F)c2=O)nc2c(C(=O)NC3CC3)cnn12 [I-606]	100 to 500	> 12500	–
CNc1cc(Nc2cccn([C@H]3CC[C@H](OC)CC3)c2=O)nc2c(C(=O)NCC3(CO)CC3)cnn12 [I-545]	100 to 500	> 2500	–
CNc1cc(Nc2cccn(-c3cccnc3)c2=O)nc2c(C(=O)N[C@@H]3C[C@@H]3F)cnn12 [I-748]	< 100	> 2500	–
[2H]C([2H])([2H])Nc1cc(Nc2cccnc2OC)nc2c(C(=O)N[C@@H]3C[C@@H]3F)cnn12 (stereo in doubt) [I-374, N-((1R,2S)-2-fluorocyclopropyl)-5-((2-methoxypyridin-3-yl)amino)-7-((methyl-d3)amino)pyrazolo[1,5-a]pyrimidine-3-carboxamide]	< 100	> 50000	–
[2H]C([2H])([2H])Oc1ncc(F)cc1Nc1cc(NC)n2ncc(C(=O)NC3CCC3)c2n1 [I-288]	< 100	> 2500	–
[2H]C([2H])([2H])Oc1ncccc1Nc1cc(NC)n2ncc(C(=O)N[C@H]3CC[C@@H]3O)c2n1 [I-373]	< 100	> 50000	–
CNc1cc(Nc2cccn([C@@H]3CCCOC3)c2=O)nc2c(C(=O)N[C@H]3CC[C@H]3O)cnn12 [I-751]	< 100	> 12500	–
CNc1cc(-c2cn(C3CC3)c3ncccc23)nc2c(C(=O)N[C@@H]3C[C@@H]3F)cnn12 [I-961, 5-(1-cyclopropyl-1H-pyrrolo[2,3-b]pyridin-3-yl)-N-((1R,2S)-2-fluorocyclopropyl)-7-(methylamino)pyrazolo[1,5-a]pyrimidine-3-carboxamide]	< 100	> 50000	–
CNc1cc(Nc2cccnc2OC2CC2)nc2c(C(=O)NCC(C)CO)cnn12 (stereo not shown) [I-435]	100 to 500	> 50000	–
[2H]C([2H])([2H])Oc1ncccc1Nc1cc(NC)n2ncc(C(=O)NCC(C)(C)CO)c2n1 [I-347]	< 100	> 50000	–
CNc1cc(Nc2cccc(N3CCCC3=O)n2)nc2c(C(=O)N[C@H]3C[C@H]3F)cnn12 [I-244]	< 100	> 12500	–
CNc1cc(Nc2cccn(-c3nc(C)co3)c2=O)nc2c(C(=O)N[C@@H]3CC[C@H]3O)cnn12 (stereo in doubt) [I-658, N-((1R,2R)-2-hydroxycyclobutyl)-7-(methylamino)-5-((1-(4-methyloxazol-2-yl)-2-oxo-1,2-dihydropyridin-3-yl)amino)pyrazolo[1,5-a]pyrimidine-3-carboxamide]	< 100	> 50000	–
CNc1cc(Nc2cccn(C3CCCCC3)c2=O)nc2c(C(=O)N[C@H]3C[C@H]3F)cnn12 [I-305]	< 100	> 12500	–
CNc1cc(Nc2cccn(-c3ccccn3)c2=O)nc2c(C(=O)N[C@H]3C[C@H]3F)cnn12 [I-681]	< 100	> 12500	–
CNc1cc(Nc2cccn(-c3ccc(N4CCOCC4)cc3)c2=O)nc2c(C(=O)N[C@H]3C[C@H]3F)cnn12 [I-135]	< 100	> 2500	–
CNc1cc(Nc2cccn(-c3nc(C)co3)c2=O)nc2c(C(=O)NC3CC3)cnn12 [I-368]	< 100	> 12500	–
CNc1cc(Nc2cc(Cl)cn(C3CCN(C)CC3)c2=O)nc2c(C(=O)N[C@@H]3CC[C@H]3O)cnn12 [I-930]	< 100	> 50000	–
CNc1cc(Nc2cccn(-c3ccc(N4CCOCC4)cn3)c2=O)nc2c(C(=O)NC3CCC3)cnn12 [I-163]	< 100	> 2500	–
CNc1cc(Nc2cccn([C@H]3CC[C@@](C)(OC)CC3)c2=O)nc2c(C(=O)N[C@H]3C[C@H]3F)cnn12 [I-360]	< 100	> 50000	–
CNc1cc(Nc2cccn(-c3ncco3)c2=O)nc2c(C(=O)N[C@H]3C[C@H]3F)cnn12 [I-716]	< 100	> 2500	–
CNc1cc(-c2cn(C3CC3)c3ncccc23)nc2c(C(=O)NC3CC3)cnn12 [I-960, N-cyclopropyl-5-(1-cyclopropyl-1H-pyrrolo[2,3-b]pyridin-3-yl)-7-(methylamino)pyrazolo[1,5-a]pyrimidine-3-carboxamide]	< 100	> 50000	–
CNc1cc(Nc2cccn(-c3cccc(C)n3)c2=O)nc2c(C(=O)N[C@H]3C[C@H]3F)cnn12 [I-131]	< 100	> 12500	–
CNc1cc(Nc2cccnc2OC(C)C)nc2c(C(=O)NC3CCC3)cnn12 [I-145]	100 to 500	> 50000	–
CNc1cc(Nc2cccn([C@H]3CC[C@H](OC)CC3)c2=O)nc2c(C(=O)N[C@H]3C[C@H]3F)cnn12 [I-344]	< 100	> 12500	–
CNc1cc(Nc2cc(F)cn(-c3ccccn3)c2=O)nc2c(C(=O)N[C@H]3C[C@H]3F)cnn12 [I-194]	< 100	> 12500	–
CNc1cc(Nc2cccn([C@H]3CC[C@H](OC)CC3)c2=O)nc2c(C(=O)N[C@H]3CC[C@@H]3O)cnn12 [I-540]	< 100	> 12500	–

Results, then the molecule that gave them:

IC50 [1] [nM]	IC50 [2, 3] [nM]	IC50 [2, 4] [nM]	Structure (SMILES)
< 100	> 50000	–	CNc1cc(Nc2cccn(-c3cc(C)n(C)n3)c2=O)nc2c(C(=O)N[C@H]3C[C@H]3F)cnn12 [I-137]
< 100	> 50000	–	CNc1cc(Nc2cccn([C@H]3CC[C@H](OC)CC3)c2=O)nc2c(C(=O)N[C@@H]3CC[C@H]3O)cnn12 [I-635]
< 100	> 2500	–	CNc1cc(Nc2cccc(-c3cnn(C)c3)c2Cl)nc2c(C(N)=O)cnn12 [I-17]
< 100	> 12500	–	CNc1cc(Nc2cc(Cl)cn(-c3cnn(C)c3)c2=O)nc2c(C(=O)NC3CC3)cnn12 [I-311]
< 100	> 50000	–	CNc1cc(Nc2cccn(-c3ccon3)c2=O)nc2c(C(=O)NC3CCC3)cnn12 [I-158]
< 100	> 50000	–	CNc1cc(Nc2cccc(C3CCCOC3)n2)nc2c(C(=O)N[C@@H]3C[C@@H]3F)cnn12 (stereo partly shown) [I-522]
< 100	> 50000	–	CNc1cc(Nc2cccn(-c3nc(C)co3)c2=O)nc2c(C(=O)N[C@H]3C[C@H]3F)cnn12 [I-369]
< 100	> 2500	–	CNc1cc(Nc2cccc(N3CCOC3=O)n2)nc2c(C(=O)N[C@H]3C[C@H]3F)cnn12 [I-236]
< 100	–	> 12500	CNc1cc(Nc2cccn([C@H]3CC[C@](C)(OC)CC3)c2=O)nc2c(C(=O)N[C@@H]3CC[C@@H]3O)cnn12 [I-722, N-((1S,2R)-2-hydroxycyclobutyl)-5-((1-((1R,4S)-4-methoxy-4-methylcyclohexyl)-2-oxo-1,2-dihydropyridin-3-yl)amino)-7-(methylamino)pyrazolo[1,5-a]pyrimidine-3-carboxamide]
< 100	> 50000	–	CNc1cc(Nc2cccn(CC3CCCCO3)c2=O)nc2c(C(=O)N[C@H]3C[C@H]3F)cnn12 (stereo partly shown) [I-365]
< 100	> 12500	–	CCn1cc(Cl)cc(Nc2cc(NC)n3ncc(C(=O)NC4CC4)c3n2)c1=O [I-133, 5-((5-chloro-1-ethyl-2-oxo-1,2-dihydropyridin-3-yl)amino)-N-cyclopropyl-7-(methylamino)pyrazolo[1,5-a]pyrimidine-3-carboxamide]
< 100	> 300	–	CNc1cc(Nc2cc(F)cn(-c3cc(C)n(C)n3)c2=O)nc2c(C(=O)NC3CC3)cnn12 [I-384]
< 100	> 12500	–	CNc1cc(Nc2cccn(C3CCC4(CC3)OCCO4)c2=O)nc2c(C(=O)NC3CC3)cnn12 [I-393]
< 100	> 12500	–	[2H]C([2H])([2H])Oc1ncc(F)cc1Nc1cc(NC)n2ncc(C(=O)NC3CC3)c2n1 [I-284]
< 100	> 12500	–	[2H]C([2H])([2H])Oc1ncccc1Nc1cc(NC)n2ncc(C(=O)N[C@H]3C[C@H]3F)c2n1 [I-177]
< 100	> 12500	–	CNc1cc(Nc2cc(Cl)cn(-c3cc(C)n(C)n3)c2=O)nc2c(C(=O)N[C@H]3C[C@H]3F)cnn12 [I-315]
< 100	–	> 50000	[2H]C([2H])([2H])Oc1ncccc1Nc1cc(NC)n2ncc(C(=O)N[C@@H]3CC[C@@H]3O)c2n1 (stereo in doubt) [I-391, N-(2-hydroxycyclobutyl)-5-((2-(methoxy-d3)pyridin-3-yl)amino)-7-(methylamino)pyrazolo[1,5-a]pyrimidine-3-carboxamide]
< 100	> 50000	–	CNc1cc(Nc2cc(Cl)cn(C3CCCN(C)C3)c2=O)nc2c(C(=O)N[C@@H]3C[C@@H]3F)cnn12 (stereo partly shown) [I-759]
< 100	–	> 50000	CNc1cc(Nc2cccn([C@H]3CC[C@](C)(OC)CC3)c2=O)nc2c(C(=O)N[C@@H]3CC[C@@H]3O)cnn12 [I-670, N-(2-hydroxycyclobutyl)-5-((1-((1R,4S)-4-methoxy-4-methylcyclohexyl)-2-oxo-1,2-dihydropyridin-3-yl)amino)-7-(methylamino)pyrazolo[1,5-a]pyrimidine-3-carboxamide]
< 100	> 12500	–	CNc1cc(Nc2cccn3ccnc23)nc2c(C(=O)N[C@@H]3C[C@@H]3F)cnn12 [I-892]
< 100	> 50000	–	CNc1cc(Nc2cccc(-c3cn(C)nc3F)n2)nc2c(C(=O)N[C@@H]3C[C@@H]3F)cnn12 [I-860]
< 100	> 12500	–	CNc1cc(Nc2cccc([C@H]3CCCOC3)n2)nc2c(C(=O)N[C@@H]3CC[C@H]3O)cnn12 [I-667]
< 100	> 50000	–	CNc1cc(Nc2cccnc2OC2CC2)nc2c(C(=O)NCC3(CO)CC3)cnn12 [I-426]
